Experimental findings from patent EP4722213A1, “NITROGEN-CONTAINING FUNCTIONAL GROUP-SUBSTITUTED PYRIDAZINOPYRIDONE DERIVATIVE AND USE THEREOF” (Sichuan Huiyu Pharmaceutical Co., Ltd., priority 2023, dated 2024) are described below.

Counter-ions that a name gives are not always drawn.

For the test, the target named is T1, SOS1 (Homo sapiens, UniProt Q07889).
T1 sequence (Q07889 1-1333): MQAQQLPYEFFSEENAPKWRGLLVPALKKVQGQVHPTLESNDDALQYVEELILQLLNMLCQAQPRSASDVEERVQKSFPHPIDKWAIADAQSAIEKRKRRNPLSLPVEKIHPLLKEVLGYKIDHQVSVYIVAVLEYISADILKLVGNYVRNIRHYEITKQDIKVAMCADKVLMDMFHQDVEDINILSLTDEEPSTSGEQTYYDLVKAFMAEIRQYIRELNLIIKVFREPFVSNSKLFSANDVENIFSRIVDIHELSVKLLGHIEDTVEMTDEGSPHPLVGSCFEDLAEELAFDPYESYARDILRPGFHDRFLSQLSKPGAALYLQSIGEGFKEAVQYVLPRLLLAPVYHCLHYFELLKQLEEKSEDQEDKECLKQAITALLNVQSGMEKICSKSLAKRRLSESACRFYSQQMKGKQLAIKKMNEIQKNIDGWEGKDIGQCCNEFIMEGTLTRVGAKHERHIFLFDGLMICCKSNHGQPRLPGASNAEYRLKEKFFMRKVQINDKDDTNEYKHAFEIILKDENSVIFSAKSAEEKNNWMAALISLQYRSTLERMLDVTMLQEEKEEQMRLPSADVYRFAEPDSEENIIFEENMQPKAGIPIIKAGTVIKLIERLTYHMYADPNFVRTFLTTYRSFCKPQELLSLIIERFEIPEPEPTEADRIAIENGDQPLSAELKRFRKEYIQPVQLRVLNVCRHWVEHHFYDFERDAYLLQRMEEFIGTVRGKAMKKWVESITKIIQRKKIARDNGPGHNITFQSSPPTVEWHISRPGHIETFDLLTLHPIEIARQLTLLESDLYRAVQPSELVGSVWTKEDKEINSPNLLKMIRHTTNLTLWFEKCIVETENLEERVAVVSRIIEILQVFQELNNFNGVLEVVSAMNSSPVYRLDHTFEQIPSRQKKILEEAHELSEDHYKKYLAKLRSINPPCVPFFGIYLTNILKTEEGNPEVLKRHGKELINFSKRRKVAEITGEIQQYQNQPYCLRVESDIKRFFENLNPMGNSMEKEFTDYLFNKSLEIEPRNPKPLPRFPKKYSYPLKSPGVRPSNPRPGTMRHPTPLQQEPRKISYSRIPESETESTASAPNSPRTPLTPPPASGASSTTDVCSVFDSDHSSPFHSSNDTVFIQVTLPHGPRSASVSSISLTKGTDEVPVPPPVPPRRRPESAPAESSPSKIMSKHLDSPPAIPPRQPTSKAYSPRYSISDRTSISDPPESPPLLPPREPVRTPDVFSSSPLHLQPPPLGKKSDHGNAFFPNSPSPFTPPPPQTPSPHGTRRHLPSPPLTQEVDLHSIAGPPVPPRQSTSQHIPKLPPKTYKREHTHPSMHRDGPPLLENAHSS
Nature of the test: biochemical.
Broadly, the IC50 is the point on the concentration scale where inhibition reaches its midpoint. Lower therefore signals greater potency in that assay. Regarding `C[C@@H](Nc1nnc(N2CCN(C3CCCC3)CC2)c2cc(=O)n(C)cc12)c1cccc(C(F)F)c1F` [Example 146, (R)-1-(4-cyclopentylpiperazin-1-yl)-4-((1-(3-(difluoromethyl)-2-fluorophenyl)ethyl)amino)-6-methylpyrido[3,4-d]pyridazin-7(6H)-one], the IC50 came out at 12.5 nM. This lies in the double-digit nanomolar range.
The result for `Cc1cc(N)cc([C@@H](C)Nc2nnc(N3CCN(C(C)C)CC3)c3cc(=O)n(C4CC4)cc23)c1F` [Example 147, (R)-4-((1-(5-amino-2-fluoro-3-methylphenyl)ethyl)amino)-6-cyclopropyl-1-(4-isopropylpiperazin-1-yl)pyrido[3,4-d]pyridazin-7(6H)-one formate] reads 6.3 nM.
In turn, `Cc1cc(N)cc([C@@H](C)Nc2nnc(N3CCN(C4CCCC4)CC3)c3cc(=O)n(C4CC4)cc23)c1F` [Example 148, (R)-4-((1-(5-amino-2-fluoro-3-methylphenyl)ethyl)amino)-1-(4-cyclopentylpiperazin-1-yl)-6-cyclopropylpyrido[3 ,4-d]pyridazin-7(6H)-one] returned an IC50 of 6.5 nM. This IC50 and that of the molecule before are within 1.5-fold of each other.
`CC(C)N1CCN(c2nnc(N[C@H](C)c3cccc(C(F)F)c3F)c3cn(N4CC5CCCC5C4)c(=O)cc23)CC1` (stereo partly drawn) [Example 149, 4-(((R)-1-(3-(difluoromethyl)-2-fluorophenyl)ethyl)amino)-6-(hexahydrocyclopenta[c]pyrrol-2(1H)-yl)-1-(4-isopropylpiperazin-1-yl)pyrido[3,4-d]pyridazin-7(6H)-one]: the IC50 was determined as 8.6 nM.
The molecule `Cc1c(C#N)cccc1[C@@H](C)Nc1nnc(N2CCN(C)CC2)c2cc(=O)n(N3CC4CCCC4C3)cc12` (stereo partly drawn) [Example 150, 3-((1R)-1-((6-(hexahydrocyclopenta[c]pyrrol-2(1H)-yl)-1-(4-methylpiperazin-1-yl)-7-oxo-6,7-dihydropyrido[3,4-d]pyridazin-4-yl)amino)ethyl)-2-methylbenzonitrile] came in with an IC50 of 5.5 nM.
In turn, `Cc1cc(N)cc([C@@H](C)Nc2nnc(N3CCN(C)CC3)c3cc(=O)n(C4(C)CC4)cc23)c1F` [Example 152, (R)-4-((1-(5-amino-2-fluoro-3-methylphenyl)ethyl)amino)-6-(1-methylcyclopropyl)-1-(4-methylpiperazin-1-yl)pyrido[3,4-d]pyridazin-7(6H)-one] displayed an IC50 of 4.2 nM.
`CCN1CCN(c2nnc(N[C@H](C)c3cccc(C#N)c3C)c3cn(N4CC5CCCC5C4)c(=O)cc23)CC1` (stereo partly drawn) [Example 153, 3-((1R)-1-((6-(hexahydrocyclopenta[c]pyrrol-2(1H)-yl)-1-(4-ethylpiperazin-1-yl)-7-oxo-6,7-dihydropyrido[3,4-d]pyridazin-4-yl)amino)ethyl)-2-methylbenzonitrile] had an IC50 of 4.6 nM.
The value for `C[C@@H](Nc1nnc(N2CCN(CC3CC3)CC2)c2cc(=O)n(N3CCN(C)CC3)cc12)c1cccc(C(F)F)c1F` [Example 154, (R)-1-(4-(cyclopropylmethyl)piperazin-1-yl)-4-((1-(3-(difluoromethyl)-2-fluorophenyl)ethyl)amino)-6-(4-methylpiperazin-1-yl)pyrido[3,4-d]pyridazin-7(6H)-one] was 5.4 nM.
`CC(C)N1CCN(c2nnc(N[C@H](C)c3cccc(C(F)(F)F)c3)c3cn(C4(C)CC4)c(=O)cc23)CC1` [Example 155, (R)-1-(4-isopropylpiperazin-1-yl)-6-(1-methylcyclopropyl)-4-((1-(3-(trifluoromethyl)phenyl)ethyl)amino)pyr ido[3,4-d]pyridazin-7(6H)-one formate] came in with an IC50 of 5.6 nM.
The result for `C[C@@H](Nc1nnc(NN2CCOCC2)c2cc(=O)n(C3(C)CC3)cc12)c1cccc(C(F)(F)F)c1` [Example 158, (R)-6-(1-methylcyclopropyl)-1-(morpholinoamino)-4-((1-(3-(trifluoromethyl)phenyl)ethyl)amino)pyr ido[3,4-d]pyridazin-7(6H)-one formate] reads 6.9 nM; that for `C[C@@H](Nc1nnc(NN2CCN(C)CC2)c2cc(=O)n(C3(C)CC3)cc12)c1cccc(C(F)(F)F)c1` [Example 159, (R)-6-(1-methylcyclopropyl)-1-((4-methylpiperazin-1-yl)amino)-4-((1-(3-(trifluoromethyl)phenyl)ethyl)amino)pyr ido[3,4-d]pyridazin-7(6H)-one formate], 6.4 nM.
The value for `CCN1CCN(c2nnc(N[C@H](C)c3cc(N)cc(C)c3F)c3cn(C4(C)CC4)c(=O)cc23)CC1` [Example 160, (R)-4-((1-(5-amino-2-fluoro-3-methylphenyl)ethyl)amino)-1-(4-ethylpiperazin-1-yl)-6-(1-methylcyclopropyl) pyrido[3,4-d]pyridazin-7(6H)-one formate] was 5.7 nM; that for `Cc1cc(N)cc([C@@H](C)Nc2nnc(N3CCN(C(C)C)CC3)c3cc(=O)n(C4(C)CC4)cc23)c1F` [Example 161, (R)-4-((1-(5-amino-2-fluoro-3-methylphenyl)ethyl)amino)-1-(4-isopropylpiperazin-1-yl)-6-(1-methylcyclopropyl) pyrido[3,4-d]pyridazin-7(6H)-one] was 5.2 nM.
The value for `Cc1cc(N)cc([C@@H](C)Nc2nnc(N3CCN(C4CC4)CC3)c3cc(=O)n(C4(C)CC4)cc23)c1F` [Example 162, (R)-4-((1-(5-amino-2-fluoro-3-methylphenyl)ethyl)amino)-1-(4-cyclopropylpiperazin-1-yl)-6-(1-methylcyclopropyl) pyrido[3,4-d]pyridazin-7(6H)-one] was 6.7 nM.
In the case of `Cc1c(C#N)cccc1[C@@H](C)Nc1nnc(N2CC[C@H](CO)C2)c2cc(=O)n(N3CC4CCCC4C3)cc12` (stereo partly drawn) [Example 166, 3-((1R)-1-((6-(hexahydrocyclopenta[c]pyrrol-2(1H)-yl)-1-((S)-3-(hydroxymethyl)pyrrolidin-1-yl)-7-oxo-6,7-dihydropyrido[3,4-d]pyridazin-4-yl)amino)ethyl)-2-methylbenzonitrile], 9.7 nM corresponded to half-maximal inhibition (IC50).
For `Cc1c(C#N)cccc1[C@@H](C)Nc1nnc(N2CCN(C)[C@H](C)C2)c2cc(=O)n(N3CC4CCCC4C3)cc12` (stereo partly drawn) [Example 167, 3-((1R)-1-((1-((R)-3,4-dimethylpiperazin-1-yl)-6-(hexahydrocyclopenta[c]pyrrol-2(1H)-yl)-7-oxo-6,7-dihydropyrido[3,4-d]pyridazin-4-yl)amino)ethyl)-2-methylbenzonitrile], 6.3 nM corresponded to half-maximal inhibition (IC50). Compared with the last molecule, the IC50 is about 1.5-fold lower.
Molecule `CC(C)N1CCN(c2nnc(N[C@H](C)c3cccc(C(F)(F)F)c3F)c3cn(C4(C)CC4)c(=O)cc23)CC1` [Example 169, (R)-4-((1-(2-fluoro-3-(trifluoromethyl)phenyl)ethyl)amino)-1-(4-isopropylpiperazin-1-yl)-6-(1-methylcyclopropyl) pyrido[3,4-d]pyridazin-7(6H)-one] came in with an IC50 of 4.7 nM.
The value for `C[C@@H](Nc1nnc(N2CCN(C3CC3)CC2)c2cc(=O)n(C3(C)CC3)cc12)c1cccc(C(F)(F)F)c1F` [Example 170, (R)-4-((1-(2-fluoro-3-(trifluoromethyl)phenyl)ethyl)amino)-1-(4-cyclopropylpiperazin-1-yl)-6-(1-methylcyclopropyl) pyrido[3,4-d]pyridazin-7(6H)-one] was 6.7 nM.
The result for `C[C@@H](Nc1nnc(N2CCN(C3CCCC3)CC2)c2cc(=O)n(C3(C)CC3)cc12)c1cccc(C(F)(F)F)c1F` [Example 171, (R)-4-((1-(2-fluoro-3-(trifluoromethyl)phenyl)ethyl)amino)-1-(4-cyclopentylpiperazin-1-yl)-6-(1-methylcyclopropyl) pyrido[3,4-d]pyridazin-7(6H)-one] reads 5 nM.
